According to PMC12990037, “Discovery of Two Structurally Distinct Classes of Inhibitors Targeting the Nuclease MUS81 and Enhancing Efficacy of Chemotherapy in Cancer Cells” (Journal of Medicinal Chemistry, 2026):

How the values were obtained:
U2OS cells [1] = assay: Annexin V apoptotic assay; type: cell-based; conditions: CPT 100 μM for the last 2 h
Experimental: (§1) Given these promising findings, we further investigated the specificity of MU262 and MU876 and potential short-term cytotoxicity. To mirror the treatment duration used in BIR and HR assays, U2OS cells were exposed to the inhibitors or siRNA for 3 days.
U2OS WT cells (300,000) were seeded in a 6-well plate, a subset of them was treated with either control siRNA or siRNA targeting MUS81. After adhesion, cells were treated with the respective inhibitors for 72 h during which CPT (100 μM, Sigma-Aldrich) was added for the last 2 h. Cells were harvested, washed in ice-cold PBS, and collected by centrifugation at 500g for 5 min. Cells were simultaneously stained with FITC-labeled annexin V antibody (556419, Becton Dickinson) and PI (5 μL) at room temperature for 15 min, protected from light. Stained cells were analyzed using a BD FACSVerse flow cytometer (Becton Dickinson) and FlowJo software (BD Life Sciences). At least 20,000 cells were used for each measurement, and experiments were performed in duplicates.

U2OS cells [2] = assay: EdU/PI cell cycle assay; type: cell-based; conditions: CPT 100 μM for the last 16 h
Experimental: as §1
U2OS WT cells (300,000) were seeded in a 6-well plate; a subset of them was treated with either control siRNA or siRNA targeting MUS81. After adhesion, cells were treated with the respective inhibitors for 72 h during which CPT ([…], Sigma-Aldrich) was added for the last 16 h and 10 μM EdU (Sigma-Aldrich) was added for the last 1 h. Cells were then harvested and stained by using the Click-iT EdU Alexa Fluor 647 Flow Cytometry Assay Kit (Thermo Fisher Scientific). Finally, cells were resuspended in 1xPBS containing 5 μg/mL of propidium iodide (PI) and analyzed using a BD FACSVerse flow cytometer (Becton Dickinson) and FlowJo software (BD Life Sciences). At least 20,000 cells were used for each measurement, and experiments were performed in duplicates.

MUS81–EME1 = molecular target: T1, MUS81–EME1 (Homo sapiens, UniProt Q96NY9); assay: Gel-based in vitro nuclease assay: cleavage of 3′flap DNA by purified MUS81–EME1; type: biochemical; conditions: for activity in the in vitro assay: negative control compounds
T1 construct: The MUS81–EME1 full-length expression plasmid was obtained from Stephen C; West; made in house; host or cells: Escherichia coli
T1 sequence (Q96NY9 1-551): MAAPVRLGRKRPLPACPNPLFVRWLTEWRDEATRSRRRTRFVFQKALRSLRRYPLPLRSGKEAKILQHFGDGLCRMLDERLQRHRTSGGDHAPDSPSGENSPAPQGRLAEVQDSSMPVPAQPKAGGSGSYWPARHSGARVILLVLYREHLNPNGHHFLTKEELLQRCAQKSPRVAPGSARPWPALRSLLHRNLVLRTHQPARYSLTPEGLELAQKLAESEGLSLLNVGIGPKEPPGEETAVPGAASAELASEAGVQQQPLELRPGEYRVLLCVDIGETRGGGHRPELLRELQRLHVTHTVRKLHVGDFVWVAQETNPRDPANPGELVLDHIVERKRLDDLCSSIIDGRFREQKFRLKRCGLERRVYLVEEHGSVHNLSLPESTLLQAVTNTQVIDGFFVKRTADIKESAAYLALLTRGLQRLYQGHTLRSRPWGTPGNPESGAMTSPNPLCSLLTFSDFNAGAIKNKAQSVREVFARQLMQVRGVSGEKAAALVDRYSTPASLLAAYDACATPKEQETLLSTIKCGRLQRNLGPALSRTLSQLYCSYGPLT
T1 sequence (Q96AY2 1-570 partner): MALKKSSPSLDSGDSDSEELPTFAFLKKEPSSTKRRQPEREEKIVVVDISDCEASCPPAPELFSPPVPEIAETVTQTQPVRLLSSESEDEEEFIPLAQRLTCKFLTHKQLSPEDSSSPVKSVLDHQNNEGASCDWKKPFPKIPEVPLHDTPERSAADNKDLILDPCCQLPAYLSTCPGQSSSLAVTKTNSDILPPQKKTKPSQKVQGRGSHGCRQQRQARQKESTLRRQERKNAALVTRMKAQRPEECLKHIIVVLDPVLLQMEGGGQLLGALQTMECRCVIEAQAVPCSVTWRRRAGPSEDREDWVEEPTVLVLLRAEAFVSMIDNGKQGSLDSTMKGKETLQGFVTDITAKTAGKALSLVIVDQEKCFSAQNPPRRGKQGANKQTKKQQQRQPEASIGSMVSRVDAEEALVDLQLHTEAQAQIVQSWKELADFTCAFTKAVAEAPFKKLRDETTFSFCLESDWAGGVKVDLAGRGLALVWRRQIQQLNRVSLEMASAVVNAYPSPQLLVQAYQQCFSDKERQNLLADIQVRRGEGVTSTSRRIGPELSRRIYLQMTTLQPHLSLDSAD
Experimental: To identify the small-molecule inhibitors of MUS81, we used two complementary screening approaches. The first involved a structure-based virtual screening, where over 140,000 small molecules were docked into the active site of MUS81 using AutoDock Vina software. […] The cleavage by purified MUS81-EME1 was monitored by gel electrophoresis, and the compound activity was quantified by measuring the reduction in cleavage product intensity.
Nuclease assays were performed in reaction buffer containing 50 mM Tris pH 7.5, 10 mM MgCl2, 1 mM DTT, 85 mM KCl, and 20% glycerol. Purified MUS81–EME1 (1 nM) was preincubated in 9 μL reaction with indicated concentrations of inhibitors for 15 min at room temperature, followed by the addition of 3 nM of a 3′flap DNA substrate (listed in Supplementary Table 9) and a further incubation for 15 min at 37 °C. The final concentration of DMSO in the reactions was 2%. The reactions were stopped by the addition of 0.1% SDS and 500 μg/mL of proteinase K, followed by incubation for 5 min at 37 °C. […] The fluorescent DNA was visualized using a FLA-9000 (Fujifilm). Bands corresponding to cleaved substrates were selected for quantification using the MultiGauge 3.2 software. Final data represent integrated density of these bands with background subtraction. Fitting of the data with sigmoid curves was performed in OriginPro (OriginLab).

[3] = Solubility in aqueous DMSO; type: physicochemical
[4] = molecular target: T2, MUS81–EME1 binding to 3′ flap DNA substrate (Homo sapiens, UniProt Q96NY9); assay: Electrophoretic mobility shift assay (EMSA); conditions: MUS81–EME1 160 nM, no MgCl2
T2 construct: The MUS81–EME1 full-length expression plasmid was obtained from Stephen C; West; made in house; host or cells: Escherichia coli
T2 sequence (Q96NY9 1-551): T1 sequence (Q96NY9 1-551)
T2 sequence (Q96AY2 1-570 partner): T1 sequence (Q96AY2 1-570 partner)
Experimental: (A,B) Purified MUS81–EME1 (160 nM) was incubated with increasing concentrations of MU262, MU876, or their respective control analogues, followed by the addition of 3 nM fluorescently labeled 3′ flap DNA substrate. MgCl2 was omitted from the reaction buffer to prevent substrate cleavage. The reaction products were resolved on a native PAGE gel. The lower band represents a free DNA substrate, while the upper smear corresponds to the MUS81–DNA complex. n = 3.
Purified MUS81–EME1 (160 nM) was incubated in a modified assay buffer without MgCl2 (50 mM Tris–HCl pH 7.4, 150 mM NaCl, and 0.05% Tween-20) with 15 nM of a 3′flap DNA substrate (listed in Supplementary Table 5) in the absence or presence of selected inhibitors at RT for 10 min, followed by an incubation at 25 °C for 10 min. The reaction was stopped on ice and products were resolved using native PAGE (7.5% acrylamide gel in 0.5% TBE) at 4 °C for 50 min (6.5 V/cm). Gel images were captured using a FLA-9000 (Fujifilm) and Typhoon (Amersham) scanners and quantified with Multi Gauge V3.2 software (Fujifilm).

Row | Structure (SMILES) | IC50 (MUS81–EME1; Table 2, in vitro) | IC50 (MUS81–EME1; Table 1, in vitro) | other results
1 | CC[C@@]1(O)C(=O)OCc2c1cc1n(c2=O)Cc2cc3ccccc3nc2-1 [CPT, camptothecin, reference compound] |  |  | apoptosis (Annexin V staining) (U2OS cells [1]): robust apoptosis; cell cycle profile (U2OS cells [2]): reduced the proportion of S phase cells
2 | COCc1cc(=O)[nH]c(-n2nc(-c3ccccc3)cc2NC(=O)c2cc(-c3ccccc3)on2)n1 [Compound 51] | > 10 µM |  | 
3 | O=C(Nc1cc(-c2ccccc2)nn1-c1ncccn1)c1cc(-c2ccccc2)on1 [Compound 48] | > 10 µM |  | 
4 | Cc1cc(=O)[nH]c(-n2nc(C3CCCCC3)cc2NC(=O)c2cc(-c3ccccc3)on2)n1 [Compound 34] | > 10 µM |  | 
5 | Cc1cc(=O)[nH]c(-n2nc(-c3ccccc3)c(C)c2NC(=O)c2cc(-c3ccccc3)on2)n1 [Compound 35] | > 10 µM |  | 
6 | Cc1cc(=O)[nH]c(-n2nc(-c3ccccc3)cc2NC(=O)c2cc(C3CCCCC3)on2)n1 [Compound 37] | > 10 µM |  | 
7 | Nc1c(-c2nc3ccccc3[nH]2)nnc2cc(-c3cccc4ccccc34)nn12 [Compound 12] |  | 1.8 µM | solubility in aqueous DMSO [3]: only sparingly soluble in aqueous DMSO
8 | CCc1nn2c(O)c(-c3ncccn3)nnc2c1-c1ccc(F)cc1 [Compound 20] |  | > 40 µM | 
9 | CCc1nn2c(N)c(-c3nc4ccccc4n3Cc3ccccc3)nnc2c1-c1ccc(F)cc1 [Compound 22] |  | 8 µM | 
10 | CCc1cc2nnc(-c3nc4ccccc4[nH]3)c(N)n2n1 [Compound 5] |  | > 5 µM | 
11 | COc1ccc(-c2cc(C(=O)Nc3cc(-c4ccccc4)nn3-c3nc(C)cc(=O)[nH]3)no2)cc1 [Compound 40] | > 10 µM |  | 
12 | CCc1nn2c(O)c(-c3nc4ccccc4n3CCN(C)C)nnc2c1-c1ccc(F)cc1 [Compound 23] |  | > 10 µM | 
13 | Cc1cc(=O)[nH]c(-n2nc(-c3ccccc3)cc2NC(=O)c2cc(-c3ccccc3Br)on2)n1 [Compound 38] | > 10 µM |  | 
14 | CCc1nn2c(O)c(-c3nc4ccccc4n3CCN3CCOCC3)nnc2c1-c1ccc(F)cc1 [Compound 24] |  | > 10 µM | 
15 | Cc1cc(=O)[nH]c(-n2nc(-c3ccccc3)cc2NC(=O)c2csc(-c3ccccc3)n2)n1 [Compound 42] | > 10 µM |  | 
16 | Nc1c(-c2nc3ccccc3[nH]2)nnc2c(-c3ccc(F)cc3)cnn12 [Compound 4] |  | > 50 µM | 
17 | CCc1nn2c(N)c(-c3ncc[nH]3)nnc2c1-c1ccc(F)cc1 [Compound 27] |  |  | solubility in aqueous DMSO [3]: less soluble in aqueous DMSO
18 | Nc1c(-c2nc3ccccc3[nH]2)nnc2cc(-c3ccccc3Oc3ccccc3)nn12 [Compound 13] |  |  | solubility in aqueous DMSO [3]: only sparingly soluble in aqueous DMSO
19 | Nc1c(-c2nc3ccccc3[nH]2)nnc2cc(-c3ccccc3)nn12 [Compound 15] |  |  | solubility in aqueous DMSO [3]: only sparingly soluble in aqueous DMSO
20 | O=C(Nc1cc(-c2ccccc2)nn1-c1ccccc1)c1cc(-c2ccccc2)on1 [Compound 47] | > 10 µM |  | 
21 | CCc1nn2c(N)c(-c3nc4ccccc4[nH]3)nnc2c1-c1ccc(OC)cc1 [Compound 7] |  | > 25 µM | 
22 | Nc1c(-c2nc3ccccc3[nH]2)nnc2cc(-c3ccc4ccccc4c3)nn12 [Compound 14] |  |  | solubility in aqueous DMSO [3]: only sparingly soluble in aqueous DMSO
23 | CCc1nn2c(C)c(-c3nc4ccccc4[nH]3)nnc2c1-c1ccc(F)cc1 [Compound 17] |  | > 10 µM | activity in the in vitro assay (MUS81–EME1): no activity; effect on MUS81–EME1 binding to 3′ flap DNA (EMSA) [4]: neither MU262 nor its inactive analogue MU1066 disrupted the MUS81–DNA interaction
24 | CCc1nn2c(O)c(-c3nccn3C)nnc2c1-c1ccc(F)cc1 [Compound 25] |  | > 40 µM | activity in the in vitro assay (MUS81–EME1): no activity
25 | COc1cc(C)nc(-n2nc(-c3ccccc3)cc2NC(=O)c2cc(-c3ccccc3)on2)n1 [Compound 49] | > 10 µM |  | 
26 | CCc1nn2cc(-c3nc4ccccc4[nH]3)nnc2c1-c1ccc(F)cc1 [Compound 16] |  | > 10 µM | 
27 | Nc1c(-c2nc3ccccc3[nH]2)nnc2ccnn12 [Compound 3] |  | > 50 µM | 
28 | CCc1nn2c(N)c(C(N)=O)nnc2c1-c1ccc(F)cc1 [Compound 21] |  | > 50 µM | 
29 | Cn1nc(-c2ccccc2)cc1NC(=O)c1cc(-c2ccccc2)on1 [Compound 46] | > 10 µM |  | 
30 | Cc1cc(=O)[nH]c(-n2nc(-c3ccccc3)cc2N(C)C(=O)c2cc(-c3ccccc3)on2)n1 [Compound 45] | > 10 µM |  | activity in the in vitro assay (MUS81–EME1): no activity; effect on MUS81–EME1 binding to 3′ flap DNA (EMSA) [4]: no significant effect
